# Source: patent US11814372B2, “Agonists of EPHA and their uses” (CASE WESTERN RESERVE UNIVERSITY, priority 2017, dated 2023)
# Experiments:
# EphA1 = target: T1, EphA1 (Homo sapiens, UniProt P21709); assay: Eph receptor activation in HEK 293 cells overexpressing EphA1; format: cell-based; details: HEK 293 cells overexpressing EphA1, same concentrations, 60 minutes
# T1 construct: expressed in transfected cells; host or cells: HEK 293
# T1 sequence (P21709 26-976): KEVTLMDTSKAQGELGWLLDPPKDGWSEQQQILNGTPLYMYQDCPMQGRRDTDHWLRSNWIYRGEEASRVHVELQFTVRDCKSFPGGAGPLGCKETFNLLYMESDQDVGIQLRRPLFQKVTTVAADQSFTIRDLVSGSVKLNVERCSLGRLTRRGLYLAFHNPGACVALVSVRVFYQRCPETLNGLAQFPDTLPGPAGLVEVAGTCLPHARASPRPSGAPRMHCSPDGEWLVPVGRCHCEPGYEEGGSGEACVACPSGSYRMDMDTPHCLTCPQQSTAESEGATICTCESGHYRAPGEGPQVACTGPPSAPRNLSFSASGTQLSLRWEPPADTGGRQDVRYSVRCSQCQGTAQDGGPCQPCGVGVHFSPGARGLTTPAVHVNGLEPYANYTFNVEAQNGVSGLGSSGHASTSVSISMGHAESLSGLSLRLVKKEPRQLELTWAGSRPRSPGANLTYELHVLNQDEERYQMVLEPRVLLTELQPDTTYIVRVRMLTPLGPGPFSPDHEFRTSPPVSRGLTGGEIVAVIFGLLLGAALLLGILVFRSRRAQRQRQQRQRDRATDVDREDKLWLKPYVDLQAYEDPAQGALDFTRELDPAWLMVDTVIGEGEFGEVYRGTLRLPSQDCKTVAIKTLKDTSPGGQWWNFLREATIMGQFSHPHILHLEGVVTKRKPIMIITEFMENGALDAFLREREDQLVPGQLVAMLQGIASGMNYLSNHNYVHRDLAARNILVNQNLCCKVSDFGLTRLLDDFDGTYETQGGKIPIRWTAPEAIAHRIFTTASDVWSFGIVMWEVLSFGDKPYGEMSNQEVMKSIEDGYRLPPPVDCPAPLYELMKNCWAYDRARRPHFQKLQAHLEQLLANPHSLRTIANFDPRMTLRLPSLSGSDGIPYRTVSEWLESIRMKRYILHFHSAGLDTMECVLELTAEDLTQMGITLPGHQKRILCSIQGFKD
# Method: Cells were plated in 24-well dishes at a density of 100,000 cells/well and grown for 24 hours prior to stimulation with appropriate compounds and ephrins for the given amounts of time. Compounds were prepared in DMSO at 500 times the final concentrations and 0.2% DMSO was used as vehicle control. Following treatment, cells were lysed directly in SDS Gel Loading Buffer and immunoblotted as described previously. […] For this purpose, HEK 293 cell lines overexpressing EphA1, EphA2, EphA3, EphA4, and EphB3 kinases were utilized.
# EphA4 LBD = target: T2, EphA4 LBD (Homo sapiens, UniProt P54764); assay: Isothermal titration calorimetry (ITC) binding; details: read-out: dissociation constant (KD)
# T2 construct: made in house
# T2 sequence (P54764 29-209, species assumed): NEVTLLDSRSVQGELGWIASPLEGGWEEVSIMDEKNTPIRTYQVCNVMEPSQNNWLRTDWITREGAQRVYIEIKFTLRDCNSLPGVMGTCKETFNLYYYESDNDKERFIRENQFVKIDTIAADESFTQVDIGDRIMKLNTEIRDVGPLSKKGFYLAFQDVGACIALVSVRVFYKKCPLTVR
# Method: Production of the 181-residue EphA4 ligand binding domain (LBD, residues 29-209) and isothermal titration calorimetry (ITC) experiments were performed as previously described. […] By superimposing HSQC spectra, the shifted HSQC peaks could be identified and further assigned to the corresponding residues of the EphA4 ectodomain. The degree of perturbation was measured by an integrated chemical shift index (CSI) calculated by the formula [(ΔH)^2+(ΔN)^2/5]^1/2.
# PC3-DAB2IP KD cells = assay: Haptotactic cell migration toward fibronectin (modified Boyden chamber); format: cell-based, human; details: 4 hours
# From the text: One of the well-established functions of Eph receptors is the ligand-dependent repulsive guidance of cell migration. As a ligand-mimicking agonist for EphA2, doxazosin is expected to activate EphA2 on tumor cells and repulse migrating tumor cells in vitro. To test this possibility, we first investigated the effects of doxazosin on integrin-mediated haptotactic cell migration toward fibronectin in a modified Boyden chamber cell migration assay. […] The inhibitory effects were observed when doxazosin was presented either in the bottom chamber, or in both top and bottom chambers in the Transwell assay system. […] Therefore, doxazosin can recapitulate a key function attributed to its native ligands, i.e., negative regulation of cell migration.
# EphA2 = EphA2 (Homo sapiens, UniProt P29317); assay: Activation of endogenous EphA2 in PC-3 cells (pEphA/B immunoblot); format: cell-based; design: host or cells: PC-3; details: endogenous EphA2, 30 minutes
# EphA2, sequence (P29317 24-976): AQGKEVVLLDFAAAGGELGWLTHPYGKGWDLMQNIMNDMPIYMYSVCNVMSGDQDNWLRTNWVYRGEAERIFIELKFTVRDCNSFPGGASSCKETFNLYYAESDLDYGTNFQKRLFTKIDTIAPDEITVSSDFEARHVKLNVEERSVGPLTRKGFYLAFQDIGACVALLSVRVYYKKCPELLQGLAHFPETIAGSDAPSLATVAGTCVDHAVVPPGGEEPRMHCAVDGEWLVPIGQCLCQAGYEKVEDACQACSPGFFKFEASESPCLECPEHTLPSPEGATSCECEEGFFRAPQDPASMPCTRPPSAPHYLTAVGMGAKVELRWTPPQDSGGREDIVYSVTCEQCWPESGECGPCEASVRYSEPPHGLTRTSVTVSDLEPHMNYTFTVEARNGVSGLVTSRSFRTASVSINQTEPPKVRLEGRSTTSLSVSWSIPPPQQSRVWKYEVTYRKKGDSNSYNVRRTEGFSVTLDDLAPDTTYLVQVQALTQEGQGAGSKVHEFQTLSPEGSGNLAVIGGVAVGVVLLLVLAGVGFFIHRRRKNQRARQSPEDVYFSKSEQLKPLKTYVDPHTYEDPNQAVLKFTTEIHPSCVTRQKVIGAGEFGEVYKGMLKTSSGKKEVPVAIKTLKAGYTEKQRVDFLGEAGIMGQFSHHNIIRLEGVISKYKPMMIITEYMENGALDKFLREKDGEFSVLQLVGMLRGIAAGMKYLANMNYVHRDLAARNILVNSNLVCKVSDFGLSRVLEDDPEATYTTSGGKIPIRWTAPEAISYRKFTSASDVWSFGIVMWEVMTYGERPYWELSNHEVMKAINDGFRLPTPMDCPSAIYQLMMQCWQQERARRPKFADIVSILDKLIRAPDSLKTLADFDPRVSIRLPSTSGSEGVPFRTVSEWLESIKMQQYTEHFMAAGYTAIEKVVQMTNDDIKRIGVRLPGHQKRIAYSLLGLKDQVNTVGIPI
# Method: Cells were plated in 24-well dishes at a density of 100,000 cells/well and grown for 24 hours prior to stimulation with appropriate compounds and ephrins for the given amounts of time. Compounds were prepared in DMSO at 500 times the final concentrations and 0.2% DMSO was used as vehicle control. Following treatment, cells were lysed directly in SDS Gel Loading Buffer and immunoblotted as described previously. Immunoprecipitation and immunofluorescence staining was performed as described. For immunoprecipitation, 300,000 cells/well were plated in 6-well dishes and lysed in modified RIPA Buffer (20 mM Tris-HCl pH 7.4, 20 mM NaF, 150 mM NaCl, 10% glycerol, 0.1% SDS, 0.5% DCA, 2 mM EDTA, 1% Triton X-100) following treatment. Either […] of ephrin-A1-Fc, or […] of EphA2 mouse monoclonal antibody (Clone D7, Millipore) were used, and mouse IgG was used as a negative control for EphA2 IP.
# To determine whether the EphA2 agonist activity of doxazosin is cell-context specific, we evaluated the effects of doxazosin on additional cell types. We first utilized HEK 293 cells overexpressing EphA2 (HEK 293-A2) that we described previously. […] Next we tested PC-3 cells that express high levels of endogenous EphA2 receptor. […] We next evaluated the time-course of activation in both MDA-231-A2 and HEK 293-A2 cells upon treatment with a single 50 μM dose of doxazosin.
structure (smiles),measurement,setting,value
COc1cc2nc(N3CCN(C(=O)C4COc5ccccc5O4)CC3)nc(N)c2cc1OC (stereo not shown) [doxazosin],"EphA1 activation, Eph receptor panel",EphA1,no activation of EphA1
same,Kd,EphA4 LBD,12.4 µM
same,haptotactic cell migration toward fibronectin,PC3-DAB2IP KD cells,dose-dependent inhibition of cell migration
same,concentration at which EphA2 activation became evident,EphA2,50 µM
